# Reference: paper PMC9714921 (PLOS Pathogens, 2022)
# Several values for one entry are separate records, joined by “and”; a condition that tells them apart may be missing. Identical values can stand only once.
# Legend:
# [1] = molecular target: Asu-ACR-16 (Ascaris suum, UniProt F1KYJ9); assay: cell-based; type: cell-based
# Method: (§1) cRNA for oocyte injection was prepared with the mMESSAGE mMACHINE T7 kit following manufacturers protocol (Ambion, USA). Concentration was determined using a Nanodrop spectrophotometer. Desired subunit combinations with associated accessory proteins were mixed and diluted with nuclease-free water to a final concentration of 250 ng/uL for each construct.
# Adult female X. laevis oocyte extraction was performed in accordance with the McGill University Animal Use Protocol 2015–7758 following standard protocol. Briefly, frog ovary lobes were placed in a Ca^2+-free OR2 solution (82 mM NaCl, 2 mM KCl, 1 mM MgCl2, 5 mM HEPES buffer, pH 7.3) and manually divided into clusters of <10 oocytes with thin tweezers followed by a 90-minute incubation in 10 mg/mL collagenase type II (Sigma-Aldrich, USA). Oocytes were washed in Ca^2+-free OR2 and placed ND96 solution (NaCl 96 mM, KCl 2 mM, CaCl2 1.8 mM, MgCl2 1 mM and HEPES 5 mM, pH 7.3) supplemented with sodium pyruvate 2.5 mM [86] and incubated at 18°C until cRNA injection. Oocytes were injected with 50 nL (12.5 ng of each injected gene) of the desired cRNA subunit and accessory protein combination mix with the NanojectII (Drummond Scientific, USA). Following injection, oocytes were incubated in ND96 buffer at 18°C until electrophysiology. All electrophysiology was conducted two days post-injection, except for the expression analysis assay in which oocytes were measured every day after injection for three consecutive days.
# All drugs were dissolved in recording solution (NaCl 100 mM, KCl 2.5 mM, CaCl2 1 mM, HEPES 5 mM, pH 7.3) to a stock concentration of 10 mM and diluted to their final recording concentrations. Oxantel and bephenium were first dissolved in DMSO to ensure a final recording concentration contained less than 0.1% DMSO. For agonist profiling, all drugs were diluted to a concentration of 100 μM.
# Oocytes were placed individually in an RC3Z chamber (Harvard Apparatus, USA) submerged in recording solution (NaCl 100 mM, KCl 2.5 mM, CaCl2 1 mM, HEPES 5 mM, pH 7.3). The RC3Z chamber was connected to a perfusion system containing recording solution and ligand solutions. Pulled glass capillaries (World Precision Instruments, USA) were filled with 3M KCl and the tips clipped and checked for appropriate resistance (between 0.5 and 5 MΩ). A 3M KCl agar bridge grounded the oocyte bath chamber. Measurements were made using an Axon Axoclamp 900A amplifier with Digidata1550M. […] Ligand solutions were applied to the oocytes with an approximate flow rate of 1.2 m/s and current responses measured. Oocytes were exposed to the ligand solution until a distinct current peak was observed followed by a wash with the recording solution until current returned to baseline for a minimum of 10 seconds until the next ligand exposure. For BAPTA-AM exposed oocytes, oocytes were incubated in 100 μM BAPTA-AM for four hours prior to electrophysiology recording. Data was analyzed using Clampex 9.2 (Axon Instruments, USA) and statistical analysis and graphs produced in Prism (GraphPad version 9.1). T-tests were used to compare responses with error bars representing standard error. For concentration-response curves, individual oocyte current response to the different ligand concentrations were normalized to the response obtained with 300 μM. Data was fit using the Graphpad “log(agonist) vs normalized response–variable slope” equation, with 95% confidence intervals being reported. […] For examples of oocyte responses, recordings were filtered in Clampfit using the lowband pass at 40 Hz cutoff.
# [2] = test system: Tzc-ACR-16-REM; assay: Voltage-clamp electrophysiology, coding-sequence modified ACR-16 in oocytes; type: cell-based, T. callipaeda; details: B. malayi ric-3 co-injected; agonist not named in the legend (ACh by the matching native values)
# Method: B. malayi acr-16 and accessory proteins ric-3, unc-50, unc-74 and molo-1 were cloned from adult female B. malayi cDNA received as a gift from Dr. T. Geary using the primers described in S1 Table. B. malayi eat-18 was prepared from two overlapping oligonucleotide primers. Other subunits were synthesized from their predicted genome sequence (Gene Universal, USA) (S2 Table). […] All sequences were cloned into the pTD2 oocyte expression vector. Asu-ACR-16 and Tzc-ACR-16 chimeras were constructed using appropriate restriction enzymes, reciprocal exchange through ligation and confirmed by sequencing (McLab, USA).
# as §1
# Adult female X. laevis oocyte extraction was performed in accordance with the McGill University Animal Use Protocol 2015–7758 following standard protocol. […] All electrophysiology was conducted two days post-injection, except for the expression analysis assay in which oocytes were measured every day after injection for three consecutive days. […]
# [3] = test system: T. suis N-AChR; details: read-out: EC50 μM ACh; accessory protein Ric-3; ref [34]; cited from earlier work
# [4] = test system: P. equorum N-AChR; details: read-out: EC50 μM ACh; accessory protein Ric-3; ref [40]; cited from earlier work
# Sequence of Asu-ACR-16 (F1KYJ9 entry or part of it): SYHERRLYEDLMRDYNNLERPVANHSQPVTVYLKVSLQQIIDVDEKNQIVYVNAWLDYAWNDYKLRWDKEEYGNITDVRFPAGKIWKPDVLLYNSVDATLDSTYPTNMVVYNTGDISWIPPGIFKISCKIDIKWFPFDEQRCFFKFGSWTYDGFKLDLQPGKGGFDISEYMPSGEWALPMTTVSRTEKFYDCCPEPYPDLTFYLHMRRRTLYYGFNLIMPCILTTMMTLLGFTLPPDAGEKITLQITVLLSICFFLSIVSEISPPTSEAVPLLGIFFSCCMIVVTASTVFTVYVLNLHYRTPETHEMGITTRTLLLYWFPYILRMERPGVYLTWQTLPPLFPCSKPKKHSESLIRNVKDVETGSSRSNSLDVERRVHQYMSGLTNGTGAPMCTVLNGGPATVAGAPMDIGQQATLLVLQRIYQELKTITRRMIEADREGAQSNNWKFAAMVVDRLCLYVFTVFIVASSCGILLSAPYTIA
smiles,measurement,setting,value
"CC(=O)OCC[N+](C)(C)C [ACh, acetylcholine]",response to 100 μM acetylcholine normalized to Day 3 response,[1]; Day 1 post-injection,44 ± 5%
same,response to 100 μM acetylcholine normalized to Day 3 response,[1]; Day 2 post-injection,88 ± 5%
same,current response to 100 μM acetylcholine,[1]; No accessory protein,24 ± 10 nA
same,current response to 100 μM acetylcholine,"[1]; No accessory protein, listed as acetylcholine",24 ± 10 (n=11) nA
same,current response to 100 μM acetylcholine,[1]; co-injected: Bma-ric-3 (reference condition),2023 ± 68 nA
same,current response to 100 μM acetylcholine,"[1]; co-injected: Bma-ric-3 (reference condition), listed as acetylcholine",2023 ± 68 (n=11) nA
same,current response to 100 μM acetylcholine,[1]; co-injected: Bma-ric-3 + Bma-eat-18,3152 ± 102 (n=13) nA
same,current response to 100 μM acetylcholine,[1]; co-injected: Bma-ric-3 + Bma-molo-1,1425 ± 55 (n=15) nA
same,current response to 100 μM acetylcholine,[1]; co-injected: Bma-ric-3 + Bma-unc-50 + Bma-unc-74,2606 ± 183 (n=10) nA
same,current response to 100 μM acetylcholine,[1]; co-injected: Bma-ric-3 + Bma-unc-50 + Bma-unc-74 + Bma-eat-18,2166 ± 87 (n=12) ns nA
same,current response to 100 μM acetylcholine,[1]; co-injected: Bma-ric-3 + Cel-emc-6,2582 ± 89 (n=12) nA
same,current response to 100 μM acetylcholine,[1]; co-injected: Bma-ric-3 + Cel-nra-2 + Cel-nra-4,2849 ± 152 (n=14) nA
same,current response to 100 μM acetylcholine,[1]; co-injected: Hco-ric-3,2000–2200 nA and 2052 ± 70 nA
same,current response to 100 μM acetylcholine,"[1]; co-injected: Hco-ric-3, listed as acetylcholine",2052 ± 66 nA and 2052 ± 66 (n=13) ns nA
same,current response,[2],587 ± 415 nA
same,EC50,[3],14.5 ± 1.03 µM
same,EC50,[4],6.4 ± 0.6 µM
